Experimental data reported in patent publication US10196606B2, “Method of producing multipotent stem cells” (FLINDERS UNIVERSITY OF SOUTH AUSTRALIA, priority 2011, dated 2019).

Columns and labels:
[1] = target: ALK1 (Homo sapiens, UniProt P37023); settings: cited from earlier work
[2] = target: ALK6 (Homo sapiens, UniProt O00238); settings: cited from earlier work
[3] = target: ALK3 (Homo sapiens, UniProt P36894); settings: cited from earlier work
[4] = target: T1, ALK4 (Homo sapiens, UniProt P36896); settings: cited from earlier work
T1 sequence (P36896 24-505): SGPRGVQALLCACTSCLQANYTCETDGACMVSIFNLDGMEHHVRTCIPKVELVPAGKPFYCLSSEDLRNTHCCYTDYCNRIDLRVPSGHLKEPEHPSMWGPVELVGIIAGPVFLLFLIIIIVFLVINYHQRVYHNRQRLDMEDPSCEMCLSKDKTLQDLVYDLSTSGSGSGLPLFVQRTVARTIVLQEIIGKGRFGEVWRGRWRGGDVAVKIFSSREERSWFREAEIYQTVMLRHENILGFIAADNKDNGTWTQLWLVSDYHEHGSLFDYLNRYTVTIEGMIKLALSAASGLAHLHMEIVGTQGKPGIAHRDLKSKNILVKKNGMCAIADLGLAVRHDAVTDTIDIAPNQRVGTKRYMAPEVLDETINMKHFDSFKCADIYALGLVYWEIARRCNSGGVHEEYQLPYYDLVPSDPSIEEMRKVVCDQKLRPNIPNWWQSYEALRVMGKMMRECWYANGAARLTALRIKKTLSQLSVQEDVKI

[5] = target: T2, ALK2 (Homo sapiens, UniProt Q04771); settings: cited from earlier work
T2 sequence (Q04771 21-509): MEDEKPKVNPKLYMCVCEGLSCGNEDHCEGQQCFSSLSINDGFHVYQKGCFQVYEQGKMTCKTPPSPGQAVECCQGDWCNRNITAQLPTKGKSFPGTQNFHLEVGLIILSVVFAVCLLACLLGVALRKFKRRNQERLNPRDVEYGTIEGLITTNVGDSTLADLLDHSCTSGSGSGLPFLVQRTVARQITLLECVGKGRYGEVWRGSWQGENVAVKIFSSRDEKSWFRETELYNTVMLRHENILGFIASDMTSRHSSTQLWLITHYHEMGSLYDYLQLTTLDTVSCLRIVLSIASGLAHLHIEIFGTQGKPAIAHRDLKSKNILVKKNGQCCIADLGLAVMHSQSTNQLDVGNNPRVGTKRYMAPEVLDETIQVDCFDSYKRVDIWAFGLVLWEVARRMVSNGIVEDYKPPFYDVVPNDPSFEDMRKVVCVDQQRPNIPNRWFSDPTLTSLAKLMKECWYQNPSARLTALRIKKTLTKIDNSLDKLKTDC

[6] = test system: human umbilical cord fibroblast (HUCF) cells; assay: Immunocytochemistry of cells induced from HUCF; assay type: cell-based
Procedure: Cells were induced with small molecules (BIX0124 alone or BIX0125 and RG108 in combination) as described above, with cells cultured in HIPS media at Days 2 and 3. Cells were cultured in NSC media for 0, 2 or 6 days as detailed below. Prior to immunofluorescence staining, cells were dissociated with Tryple-E enzyme as described above, and then incubated overnight at low density on poly-D-lysine coated coverslips in HIPS media prior to immunofluorescence staining.
Cells were then washed with PBS and then fixed with 4% paraformaldehyde for 10 min. After washing twice with PBS, cells were permeabilised with 0.1% Triton X-100 for 20 min. Cells were then washed twice and blocked in blocking buffer (a solution of PBS containing 1% FBS and 4% BSA) for 1 hour. Primary antibodies were diluted in blocking buffer in the following dilutions: anti-Sox2 (Millipore, 1:200, mouse), anti-SSEA-1 (Santa Cruz Biotechnology, 1:200, mouse), anti-glial fibrillary acidic protein (GFAP; Dako, 1:400, rabbit), anti-Map2 (Osenses, 1:1000, rabbit), anti-Olig2 (Osenses, 1:1000, rabbit), anti-Alpha-tubulin (Sigma, 1:1000, mouse), anti-neural/glial 2 (Abeam, 1:200), anti-nestin (DHSB, 1:1000), anti-Tuj1 Sigma, 1:300 and applied to the cells for 1 hour at room temperature or overnight at 4° C. Cells were washed three times with PBS and then secondary fluorescent antibodies (1:1000, Cy3 or Alexa-488) and counterstain with 10 μg/ml DAPI were applied for 1 hour at room temperature.
In one experiment, HUCF cells were induced as follows: At passage 17, HUCF cells were negatively selected for p75-NTR and then induced using BIX01294 alone in HIPS media for one day and HIPS media (no small molecules) for two days followed by culture in NSC media for 6 days. Meanwhile control HUCF cells at passage 17 were negatively selected for p75-NTR cells, and then passaged another 5 times. Cells were then stained with mouse anti-p75-NTR-FITC (Biosensis, 1:6, mouse) and counterstained with DAPI as described above.

[7] = test system: human umbilical cord fibroblast (HUCF) cells; assay: RT-PCR of cells induced from HUCF; assay type: cell-based; settings: immediately after induction, prior to culture in NSC media
Procedure: mRNA was extracted from cells induced using BIX01294 and RG108 in combination or BIX01294 alone. A cell lysate from SKSY5Y cells (a neuroblastoma cell line) was used as a positive control, and HUCF cells at passage 17 following p75-NTR negative selection was used as a negative control. RT-PCR was performed as described in Example 1 for expression of typical neural stem cell genes GFAP, Sox2, Olig2, Nestin, and pluripotent stem cell genes Oct4 and Nanog, and loading control gene GAPDH using the primers described in Example 1.

[8] = test system: mouse embryonic fibroblasts (MEF); assay: Induction of SMINS cells / ALP-positive neurospheres from MEF, 6 induction cycles; assay type: cell-based; settings: withdrawal of individual small molecules from the combination
Procedure: (§1) Mouse embryonic fibroblasts (MEF) and mouse adult tail-tip fibroblasts (TTF) were isolated from C57/BL6 mice as described previously^2. Both cell types (ie MEF and TTF) were cultured in MEF medium (Dulbecco's Modified Eagle Medium (DMEM; Invitrogen Corporation, Carlsbad, Calif., United States of America) containing 10% Fetal Bovine Serum (FBS; Thermo Fisher Scientific, Waltham, Mass., United. States of America), 50 units/ml penicillin and 50 μg/ml streptomycin (Invitrogen)). Native NS cells were cultured from mouse brain at E12-E14 as positive controls in neural stem (NS) cell media.
(§2) 35 mm tissue culture dishes were coated with feeder cells (fibroblasts cultured from mouse embryo and seeded at 1.4×10^5 cells per 35 mm tissue culture dish) before induction. The MEF (passage 3) or TTF were seeded at 1.4×10^5 per 35 mm feeder cell-coated dish. The cells were induced in 6 cycles. […] The cells were then cultured in SCM in the absence of the small molecules for the next two days. Then, the cycle was repeated 5 times. Next, the cells were passaged and suspended in a drop of […] containing at least 50 cells for two days. Finally, the cells were cultured in the neural stem (NS) cell medium (DMEM/F12 (Invitrogen) supplemented with B-27 (1:50; Gibco Inc, Billings, Mont., United States of America), 50 units ml^−1 penicillin, 50 μg ml^−1 streptomycin, 8 mM HEPES buffer, 20 ng ml^−1 epidermal growth factor (EGF), 10 ng ml^−1 basic fibroblast growth factor (bFGF) for two weeks.
(§3) ES culture medium (also referred to as SCM herein) was added to NS and SMINS cells overnight. Alkaline phosphatase staining was carried out according to the manufacturer's protocol (Hoffman-La Roche, Basel, Switzerland). For the immunofluorescence staining, cells were washed with phosphate buffered saline (PBS) and then fixed with 4% paraformaldehyde for 10 min. After washing twice with PBS, the cells were permeabilised with 0.1% Triton X-100 for 20 min. Cells were then washed twice and blocked in blocking buffer (a solution of PBS containing 1% FBS and 4% bovine serum albumin (BSA)) for 1 hour. […]

[9] = test system: mouse adult tail-tip fibroblasts (TTF); assay: Induction of SMINS cells / ALP-positive neurospheres from TTF; assay type: cell-based
Procedure: as §1, §2, §3

[10] = test system: human umbilical cord fibroblast (HUCF) cells; assay: Induction of ALP positive colonies from HUCF, single induction cycle; assay type: cell-based; settings: one induction cycle, 7 days in NSC media
Procedure: At passage 17, HUCF cells were labelled with an anti-p75NTR antibody and underwent cell sorting for p75-NTR expression as described below, p75NTR-negative cells were used for all experiments of the induction by small molecules described below. Two hours before induction, p75-NTR^− HUCF were seeded at 1.4×10^5 per 35 mm tissue culture dishes coated with poly-D-lysine. On Day 1, the cells were induced in human induced pluripotent stem cell culture medium (HIPS) (DMEM/F12 supplemented with 25% KSR (Invitrogen), 1% non-essential amino acids (Invitrogen), 1% L-glutamine (Invitrogen), 50 units ml-1 penicillin, 50 μg ml-1 streptomycin, 10 ng ml-1 bFGF, and 0.1 mM β-mercaptoethanol (Invitrogen)) containing various combinations of small molecules as described below. The small molecules were used at the following concentrations: 0.5 μM PD0325901, 0.5 μM PD184352 (Millipore Merck), 72 nM U0216 (Millipore Merck), 0.4 μM RG108. […] 5-aza-2′-deoxycytidine (Millipore Merck) and 1 μM BIX01294. On day 2, the media was replaced with stem cell media (SCM) in the absence of small molecules as described in Example 1, except where indicated, the media was HIPS media in the absence of small molecules. On day 4, the cells were dissociated using 1 ml (1×) Tryple-E enzyme (Invitrogen) and seeded on 35 mm Petri dish with Neural Stem Cell (NSC) media (Neurobasal Medium (Invitrogen) supplemented with 10 ng/m bFGF and EGF with 50 units/ml penicillin, 50 μg/ml streptomycin). Colonies were maintained in NSC media for 7 days to induce neural stem cells unless stated otherwise.
Cells were induced with a combination of small molecules as described above and stained with ALP as described in Example 1, and examined using phase contrast microscopy.

[11] = test system: cell reprogramming; settings: cited from earlier work

ALK3, sequence (P36894 24-532): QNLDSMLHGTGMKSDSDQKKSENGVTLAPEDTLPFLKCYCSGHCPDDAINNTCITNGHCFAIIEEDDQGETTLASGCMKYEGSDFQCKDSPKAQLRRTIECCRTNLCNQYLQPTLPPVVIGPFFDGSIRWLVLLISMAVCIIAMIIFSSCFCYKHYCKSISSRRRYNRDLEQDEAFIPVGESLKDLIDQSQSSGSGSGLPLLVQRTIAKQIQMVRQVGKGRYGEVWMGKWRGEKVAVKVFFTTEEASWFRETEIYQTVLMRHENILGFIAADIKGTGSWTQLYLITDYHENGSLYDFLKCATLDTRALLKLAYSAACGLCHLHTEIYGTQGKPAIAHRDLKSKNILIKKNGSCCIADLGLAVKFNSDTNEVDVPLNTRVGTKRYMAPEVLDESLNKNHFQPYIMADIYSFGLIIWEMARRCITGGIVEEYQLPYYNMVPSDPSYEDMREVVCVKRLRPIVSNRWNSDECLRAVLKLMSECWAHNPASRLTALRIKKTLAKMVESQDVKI
ALK6, sequence (O00238 14-502): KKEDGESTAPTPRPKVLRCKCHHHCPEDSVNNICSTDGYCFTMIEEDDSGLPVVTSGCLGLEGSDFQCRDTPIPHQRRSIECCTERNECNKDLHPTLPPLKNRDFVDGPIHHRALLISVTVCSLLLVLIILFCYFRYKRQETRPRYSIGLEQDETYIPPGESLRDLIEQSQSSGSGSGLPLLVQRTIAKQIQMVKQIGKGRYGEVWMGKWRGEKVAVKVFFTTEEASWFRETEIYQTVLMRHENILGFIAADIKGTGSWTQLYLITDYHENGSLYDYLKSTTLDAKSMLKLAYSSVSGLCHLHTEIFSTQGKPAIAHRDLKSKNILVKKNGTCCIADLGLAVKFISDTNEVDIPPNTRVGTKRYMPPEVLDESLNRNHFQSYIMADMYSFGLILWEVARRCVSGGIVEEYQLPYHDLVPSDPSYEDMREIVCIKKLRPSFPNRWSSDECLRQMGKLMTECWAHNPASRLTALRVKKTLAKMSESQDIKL
ALK1, sequence (P37023 22-503, species assumed): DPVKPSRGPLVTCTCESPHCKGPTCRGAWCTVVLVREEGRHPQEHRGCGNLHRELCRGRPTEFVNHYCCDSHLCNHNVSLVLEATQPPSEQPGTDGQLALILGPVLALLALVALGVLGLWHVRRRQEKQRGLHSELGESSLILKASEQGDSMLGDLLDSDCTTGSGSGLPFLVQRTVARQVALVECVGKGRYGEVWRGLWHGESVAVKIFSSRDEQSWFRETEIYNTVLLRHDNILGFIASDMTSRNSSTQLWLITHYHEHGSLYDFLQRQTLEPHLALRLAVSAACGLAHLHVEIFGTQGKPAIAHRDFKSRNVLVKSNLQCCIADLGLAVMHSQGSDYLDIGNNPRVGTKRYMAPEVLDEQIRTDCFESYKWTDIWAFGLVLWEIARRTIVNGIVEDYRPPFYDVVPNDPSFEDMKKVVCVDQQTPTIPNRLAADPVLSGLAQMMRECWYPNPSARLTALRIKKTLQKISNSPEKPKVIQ

## Cc1cccc(-c2nn(C(=S)Nc3ccccc3)cc2-c2ccnc3ccccc23)n1 [A83-01, 3-(6-Methyl-2-pyridinyl)-N-phenyl-4-(4-quinolinyl)-1H-pyrazole-1-carbothioamide]
[1]
  inhibition of ALK1: only weakly inhibits
[2]
  inhibition of ALK6: only weakly inhibits
[3]
  inhibition of ALK3: only weakly inhibits
[4]
  IC50: 0.012 µM
[5]
  inhibition of ALK2: only weakly inhibits

## COc1cc2nc(N3CCCN(C)CC3)nc(NC3CCN(Cc4ccccc4)CC3)c2cc1OC.Cl.Cl.Cl.O [BIX01294, 2-(hexahydro-4-methyl-1H-1,4-diazepin-1-yl)-6,7-dimethoxy-N-[1-(phenylmethyl)-4-piperidinyl]-4-quinazolinamine trihydrochloride hydrate]
[6]; 6 days in NSC media
  expression of neural stem cell marker nestin: additionally express the neural stem cell marker nestin
  p75-NTR staining versus control p75-NTR negative HUCF: marked upregulation
[6]; after culture in NSC media
  expression of NG2, Olig2, GFAP and Tuj1: some BIX01294 induced cells express
[6]; culture in NSC media for 0 or 6 days
  expression of Sox2 and SSEA-1 (immunofluorescence): clearly expressed Sox2 and SSEA-1
[7]
  Sox2 expression (RT-PCR): expressed Sox2 immediately after induction
[8]
  essential for generation of SMINS-MEF cells: required for the induction
[9]
  ALP-positive neurosphere produced from TTF: No

## O=C(NOCC1CC1)c1ccc(F)c(F)c1Nc1ccc(I)cc1Cl [PD184352, 2-(2-chloro-4-iodo-phenylamino)-N-cyclopropylmethoxy-3,4-difluoro-benzamide]
[10]
  induction of ALP positive colonies from HUCF: induced ALP positive colonies

## O=C(NOCC(O)CO)c1ccc(F)c(F)c1Nc1ccc(I)cc1F (centres unmarked) [PD325901, N-(2,3-dihydroxy-propoxy)-3,4-difluoro-2-(2-fluoro-4-iodo-phenylamino)-benzamide]
[8]
  essential for generation of SMINS-MEF cells: required for the induction
[9]
  ALP-positive neurosphere produced from TTF: Yes
[10]
  induction of ALP positive colonies from HUCF: induced ALP positive colonies

## O=C(O)[C@H](Cc1c[nH]c2ccccc12)N1C(=O)c2ccccc2C1=O [RG108, 1H-Indole-3-propanoic acid, α-(1,3-dihydro-1,3-dioxo-2H-isoindol-2-yl)-, (αS)—]
[8]
  essential for generation of SMINS-MEF cells: required for the induction
[9]
  ALP-positive neurosphere produced from TTF: No

## N#CC(=C(/N)Sc1ccccc1N)/C(C#N)=C(/N)Sc1ccccc1N [U0216]
[10]
  induction of ALP positive colonies from HUCF: induced ALP positive colonies

## CCCC(CCC)C(=O)O [valproic acid]
[11]
  improvement of the efficiency of cell reprogramming by some induction processes: at least 100 fold
